The values below come from PubChem BioAssay (NCI).

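Protocol summary: plate cells (96-well), add compound at 5 concentrations, incubate 48 h, interpolate endpoints linearly. The concentration for 50% growth inhibition is given as GI50. Definition used: TGI = concentration required for complete inhibition of growth.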

Assay in all cases: NCI anticancer screen, dose series, 48 h
Test [1] has as its system 786-0 renal.
Test [2] deals with ACHN renal.
Test [3] concerns CAKI-1 renal.
For test [4], the system named is CCRF-CEM leukemia.
Test [5] concerns MDA-MB-435.
Test [6] deals with NCI/ADR-RES ovarian.
For test [7], the system named is OVCAR-3 ovarian.
Test [8] has as its system SR leukemia.
Test [9] has as its system T-47D breast.
Test [10] concerns TK-10 renal.

For `C/C(=C\c1csc(C)n1)[C@@H]1C[C@@H]2O[C@]2(C)CCC[C@H](C)[C@H](O)[C@@H](C)C(=O)C(C)(C)[C@@H](O)CC(=O)N1`, the GI50 in test [1] is 0.000182 µM; in [2], 0.000324 µM; in test [3] it was 0.0137 µM; in [4], 0.000125 µM; in [5], 6.55e-05 µM; in test [6], 0.000206 µM. In addition, the GI50 is 0.000158 µM in test [7], 0.00102 µM in [8], 0.000189 µM in test [9] and 0.00534 µM in [10]. Further, the TGI in test [1] was determined as 0.000356 µM; in [2] it was 0.000478 µM; in [3], 0.0434 µM; in test [4], 0.000203 µM; in test [5], 0.000143 µM; in test [6], 0.000412 µM. For the same compound, the TGI in test [7] was 0.000377 µM; in [8], 0.00332 µM; in test [9], 0.000469 µM; in [10], 0.0411 µM.
As for `CC1=C(C(=O)Nc2ccc3[nH]ncc3c2)C(c2ccc(F)cc2)N=C(c2ccc(C(F)(F)F)nc2)N1` (stereo not drawn), the GI50 in [1] is 10.8 µM; in [2] it was 13.3 µM; in [3] it was 11.9 µM; in [4] it was 17 µM; in [5], 4.97 µM; in test [6] it was 18.5 µM. Moreover, the GI50 in test [7] was 9.07 µM; in test [8] it was 6.43 µM; in test [9] it was more than 20 µM; in test [10], more than 24.1 µM. Further, the TGI in test [1] is more than 25 µM; in test [2], more than 25 µM; in [3], more than 25 µM; in test [4], more than 25 µM; in test [5], 12 µM; in [6], more than 25 µM. In addition, the TGI in [7], in test [8], in [9] and in [10] was more than 25 µM throughout.
With `FC(F)(F)c1cccc(CNC2CCN(CCc3ccccc3)CC2)c1`, the GI50 in test [1] was 14.6 µM; in test [2], 33.2 µM; in test [3], 22.4 µM; in test [4], 27 µM; in [5], 15.9 µM; in test [6] it was 41.9 µM. Further, the GI50 is 32.6 µM in [7], 15.1 µM in test [8], 20 µM in [9] and 30.7 µM in test [10]. Further, the TGI in test [1] is 32.6 µM; in test [2], more than 100 µM; in test [3], more than 100 µM; in [4], 75.8 µM; in [5], 30.8 µM; in test [6], more than 100 µM. In addition, the TGI in test [7] is more than 100 µM; in test [8] it was 41.6 µM; in test [9] it was 52.9 µM; in test [10] it was more than 100 µM.
Consider `CC(=O)O[C@H]1C[C@@H]2[C@@]3(C)CC[C@H]4C[C@@]4(C)[C@@H]3CC[C@@]2(C)C2=CCC3=C(COC3=O)[C@]21C`, for which the GI50 is 18.6 µM in test [1]; 21.5 µM in test [2]; 33.6 µM in [4]; 22.6 µM in test [5]; 16.9 µM in test [6]; 10.1 µM in test [7]. In addition, the GI50 in [8] was more than 100 µM; in test [9], 20.7 µM; in test [10], 20.4 µM. Also, the TGI in [1] is 37.7 µM; in test [2], 43.9 µM; in [4], more than 100 µM; in test [5], 46.9 µM; in [6], 36.3 µM; in [7], 25.7 µM. Moreover, the figures for the TGI in test [8], in [9] and in test [10] were more than 100 µM, 54.7 µM and 48.5 µM, respectively.
For `COc1cc(NC(=O)COc2ccccc2)c(C(N)=O)cc1OC`, the GI50 in test [1] was 7.32 µM; in test [2] it was 8.12 µM; in [3], 3.8 µM; in [4], 0.562 µM; in test [5], 0.203 µM; in [6], 0.487 µM. The GI50 in test [7] was 0.472 µM; in test [8] it was 0.515 µM; in test [9] it was 3.46 µM; in [10], 14.4 µM. In addition, the TGI in test [1] is 38.8 µM; in test [2] it was more than 100 µM; in test [3] it was more than 100 µM; in test [4], more than 100 µM; in test [5], 0.875 µM; in test [6], 11.7 µM. Further, the TGI is 10.5 µM in [7], more than 100 µM in [8], more than 100 µM in test [9] and more than 100 µM in test [10].
As for `O=C(NO)c1ccc(CNc2cccc3nc(C4CC4)n(-c4ccccc4)c(=O)c23)cc1`, the GI50 in [1] is 2.18 µM; in test [2], 1.92 µM; in test [3] it was 2.12 µM; in test [4] it was 1.5 µM; in test [5] it was 1.86 µM; in test [6] it was 1.28 µM. Besides, the GI50 is 1.92 µM in test [7], 0.877 µM in [8], 2.08 µM in [9] and 1.73 µM in test [10]. Besides, the TGI in [1] is 5.2 µM; in test [2] it was 4.67 µM; in [3], 7.51 µM; in test [4] it was more than 100 µM; in test [5], 3.91 µM; in test [6], 6.45 µM. Moreover, the TGI in test [7] is 5.51 µM; in test [8], more than 100 µM; in test [9], 7.34 µM; in [10], 7 µM.
Turning to `COc1ccccc1CNCCCN1C(=O)c2ccc3c4c(ccc(c24)C1=O)C(=O)N(CCCNCc1ccccc1OC)C3=O`, the GI50 in test [1] is 0.257 µM; in test [2] it was 0.17 µM; in test [3], 0.233 µM; in test [4] it was 0.194 µM; in test [5], 0.179 µM; in test [6], 1.19 µM. Further, the GI50 is 0.085 µM in [7], 0.264 µM in test [8], 0.188 µM in test [9] and 0.17 µM in test [10]. The TGI is 0.703 µM in test [1]; 0.555 µM in test [2]; 0.725 µM in test [3]; 2 µM in test [4]; 0.349 µM in [5]; 4.54 µM in test [6]. In addition, the TGI in [7] was 0.218 µM; in test [8], 0.928 µM; in test [9] it was 0.42 µM; in test [10] it was 0.466 µM.
